Experimental findings from the supplement of paper PMC7108870 are described below.

In assay [1] the test system is HEK293sieSTAT3(wt). Briefly: drug sensitivity score (DSS), cytotoxicity CellTox Green (DSS (dimensionless)); higher = more cytotoxic; extreme values may be limits of the assay. The following applies: 72 h; STAT3 variant: wild type. Summed up:
(§1)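 A drug sensitivity score, based on the area of the dose-response curve, was calculated in Breeze after normalising values to negative and positive control wells. It came from HEK293 cells carrying a STAT3-dependent luciferase reporter and overexpressing wild-type or mutant STAT3, plated at 20 μl of 100,000 cells/ml onto compounds acoustically pre-plated at 5 concentrations in 10-fold dilutions in 384-well plates. Following 72 hours at 37°C and 5% CO2, CellTox Green fluorescence (485/520 nm) and then CellTiter-Glo luminescence were read on a PHERAstar FS.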

Assay [2] deals with HEK293sieSTAT3(Y640F). The assay is described as above. The following applies: 72 h; STAT3 variant: Y640F (constitutively active). The procedure, abridged: as §1
In assay [3] the test system is HEK293sieSTAT3(wt). Put plainly: drug sensitivity score (DSS), viability CellTiter-Glo (DSS (dimensionless)); higher = more growth inhibition; extreme values may be limits of the assay. The note with it: 72 h; STAT3 variant: wild type. The procedure, abridged:
as §1
(In general: ATP-based viability assays read luminescence as a measure of living cells.)

Assay [4] relates to HEK293sieSTAT3(Y640F). The assay is described as above. The following applies: 72 h; STAT3 variant: Y640F (constitutively active). Summed up: as §1

Regarding `CC(=O)[C@]1(O)Cc2c(O)c3c(c(O)c2[C@@H](O[C@H]2C[C@H](N)[C@H](O)[C@H](C)O2)C1)C(=O)c1ccccc1C3=O` [Idarubicin] (top concentration tested 1000 nM), the drug sensitivity score in assay [1] was determined as 10.7; in assay [2], 7.05; in assay [3], 26.9; in assay [4] it was 27.1.

Turning to `COc1cc(C(=O)O)ccc1NC(=O)[C@@H]1N[C@@H](CC(C)(C)C)[C@](C#N)(c2ccc(Cl)cc2F)[C@H]1c1cccc(Cl)c1F` [Idasanutlin] (top concentration tested 10000 nM), the drug sensitivity score in assay [1] came to 0; in assay [2], 0.11; in assay [3], 3.61; in assay [4] it was 4.92.

As for `CC[C@H](Nc1ncnc2[nH]cnc12)c1nc2cccc(F)c2c(=O)n1-c1ccccc1` [Idelalisib] (top concentration tested 10000 nM), the drug sensitivity score in assay [1] was determined as 0.23; in assay [2], 0; in assay [3], 2.04; in assay [4] it was 1.95.

Consider `O=P1(NCCCl)OCCCN1CCCl` (stereo not drawn) [Ifosfamide] (top concentration tested 10000 nM), for which the drug sensitivity score in assay [1], in assay [2], in assay [3] and in assay [4] was 0 throughout.

Take `Cc1ccc(NC(=O)c2ccc(CN3CCN(C)CC3)cc2)cc1Nc1nccc(-c2cccnc2)n1` [Imatinib] (top concentration tested 10000 nM): the drug sensitivity score in assay [1] turned out to be 5.22; in assay [2], 0.42; in assay [3] it was 7.13; in assay [4], 4.88.

For the compound `CC(C)Cn1cnc2c(N)nc3ccccc3c21` [Imiquimod] (top concentration tested 2500 nM), the drug sensitivity score in assay [1] was found to be 0; in assay [2], 0; in assay [3] it was 2.55; in assay [4], 4.36.

With `O=C(Nc1ccncc1)C(=O)c1cn(Cc2ccc(Cl)cc2)c2ccccc12` [Indibulin] (top concentration tested 10000 nM), the drug sensitivity score was 5.57 in assay [1], 1.19 in assay [2], 16 in assay [3] and 10.7 in assay [4].

On to `NC(=O)c1ccc(I)c([N+](=O)[O-])c1` [Iniparib] (top concentration tested 10000 nM), for which the drug sensitivity score in assay [1], in assay [2], in assay [3] and in assay [4] was 0 throughout.

For `CC(C)NC[C@@H](C(=O)N1CCN(c2ncnc3c2[C@H](C)C[C@H]3O)CC1)c1ccc(Cl)cc1` [Ipatasertib] (top concentration tested 10000 nM), the drug sensitivity score is 0.07 in assay [1], 0 in assay [2], 16.7 in assay [3] and 14.6 in assay [4].

As for `CCc1c2c(nc3ccc(OC(=O)N4CCC(N5CCCCC5)CC4)cc13)-c1cc3c(c(=O)n1C2)COC(=O)[C@]3(O)CC` [Irinotecan] (top concentration tested 10000 nM), the drug sensitivity score is 6.44 in assay [1], 2.17 in assay [2], 14.5 in assay [3] and 12.2 in assay [4].

For the compound `CCC(C)n1ncn(-c2ccc(N3CCN(c4ccc(OCC5COC(Cn6cncn6)(c6ccc(Cl)cc6Cl)O5)cc4)CC3)cc2)c1=O` (stereo not drawn) [Itraconazole] (top concentration tested 5000 nM), the drug sensitivity score in assay [1] is 7.01; in assay [2] it was 4.55; in assay [3] it was 5.54; in assay [4], 6.28.

`C/C(=C\c1csc(C)n1)[C@@H]1C[C@@H]2O[C@]2(C)CCC[C@H](C)[C@H](O)[C@@H](C)C(=O)C(C)(C)[C@@H](O)CC(=O)N1` [Ixabepilone] (top concentration tested 1000 nM): the drug sensitivity score in assay [1] is 3.56; in assay [2] it was 0.83; in assay [3], 8.23; in assay [4], 6.8.

Consider `CCCNC(=O)Nc1ccc(Oc2ncnc3cc(OC)c(OC)cc23)cc1Cl` [KRN-633] (top concentration tested 2500 nM), for which the drug sensitivity score in assay [1] worked out at 0.01; in assay [2], 0; in assay [3], 0.2; in assay [4], 0.57.

In the case of `O=C(c1ccc(/C=C/c2n[nH]c3ccccc23)cc1)N1CCNCC1` [KW-2449] (top concentration tested 2500 nM), the drug sensitivity score in assay [1] came out at 0.89; in assay [2] it was 0; in assay [3] it was 0.3; in assay [4], 1.97.

`O=C(Cc1ccc(-c2ccc(OCCN3CCOCC3)cc2)cn1)NCc1ccccc1` [KX2-391] (top concentration tested 10000 nM): the drug sensitivity score in assay [1] stood at 19.6; in assay [2], 4.02; in assay [3], 23.2; in assay [4] it was 19.9.

Regarding `CN[C@@H](C)C(=O)N[C@H](C(=O)N1CCC[C@H]1c1nc(C(=O)c2ccc(F)cc2)cs1)C1CCCCC1` [LCL161] (top concentration tested 25000 nM), the drug sensitivity score in assay [1] worked out at 45; in assay [2], 26.6; in assay [3], 24.6; in assay [4] it was 13.7.

For `CS(=O)(=O)CCNCc1ccc(-c2ccc3ncnc(Nc4ccc(OCc5cccc(F)c5)c(Cl)c4)c3c2)o1` [Lapatinib] (top concentration tested 1000 nM), the drug sensitivity score in assay [1] turned out to be 2.09; in assay [2], 0; in assay [3], 0; in assay [4] it was 0.
